Assays:
[1] = molecular target: T1, USP28 (USP28-5(1-1077)-TEV-6*His; LifeSensors) (Homo sapiens, UniProt Q96RU2); assay: Ubiquitin-Rhodamine 110 Assay for USP28 Activity, Example A-1(b); assay type: biochemical
T1 construct: construct USP28 (USP28-5(1-1077)-TEV-6*His; LifeSensors); TEV cleavage site (C); 6xHis (C); purchased LifeSensors
T1 sequence (Q96RU2 1-1077): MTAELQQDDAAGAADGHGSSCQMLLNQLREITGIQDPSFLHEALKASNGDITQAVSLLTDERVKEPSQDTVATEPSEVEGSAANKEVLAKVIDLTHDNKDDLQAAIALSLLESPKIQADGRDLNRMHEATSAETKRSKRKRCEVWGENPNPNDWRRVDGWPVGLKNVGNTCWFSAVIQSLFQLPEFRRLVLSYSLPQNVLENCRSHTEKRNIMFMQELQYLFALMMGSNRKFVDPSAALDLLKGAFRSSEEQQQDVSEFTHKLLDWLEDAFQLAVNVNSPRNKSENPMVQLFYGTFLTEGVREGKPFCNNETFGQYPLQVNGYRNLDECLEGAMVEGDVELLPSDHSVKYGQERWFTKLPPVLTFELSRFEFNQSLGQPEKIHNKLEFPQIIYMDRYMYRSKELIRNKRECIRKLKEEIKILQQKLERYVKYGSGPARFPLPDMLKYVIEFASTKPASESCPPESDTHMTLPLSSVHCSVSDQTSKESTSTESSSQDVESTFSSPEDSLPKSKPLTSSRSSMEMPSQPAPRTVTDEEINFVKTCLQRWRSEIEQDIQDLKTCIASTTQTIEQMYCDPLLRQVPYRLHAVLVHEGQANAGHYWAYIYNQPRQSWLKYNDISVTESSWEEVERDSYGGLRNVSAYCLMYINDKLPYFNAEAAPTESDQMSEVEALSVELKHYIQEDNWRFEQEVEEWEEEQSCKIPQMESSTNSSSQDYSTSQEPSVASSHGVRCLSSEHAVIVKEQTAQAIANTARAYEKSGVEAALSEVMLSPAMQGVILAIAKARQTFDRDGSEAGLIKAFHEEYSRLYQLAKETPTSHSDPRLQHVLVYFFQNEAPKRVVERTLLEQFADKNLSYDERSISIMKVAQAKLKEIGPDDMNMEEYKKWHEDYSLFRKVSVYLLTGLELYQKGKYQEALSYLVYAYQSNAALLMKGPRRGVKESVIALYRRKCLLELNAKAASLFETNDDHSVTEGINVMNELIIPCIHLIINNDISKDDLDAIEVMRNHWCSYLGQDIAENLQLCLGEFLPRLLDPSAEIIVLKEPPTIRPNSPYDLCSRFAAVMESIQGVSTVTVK
Protocol: Example A-1(b): Biochemical Assay: Ubiquitin-Rhodamine 110 Assay for USP28 Activity
Each assay was performed in a final volume of 20 μL in assay buffer containing 20 mM Tris-HCl (pH 8.0, (1M Tris-HCl, pH 8.0 solution; Corning 46-031-CM)), 2 mM CaCl2 (1M Calcium Chloride solution; Sigma #21114) 2 mM BME (2-Mercaptoethanol; Sigma 63689-25ML-F), 0.01% Prionex (0.22 μM filtered, Sigma #G-0411), and 0.01% Triton X-100. Stock compound solutions were stored at −20° C. as 10 mM in DMSO. Up to 1 month prior to the assay, 2 mM test compounds were pre-dispensed into assay plates (Black, low volume; Corning #3820) and frozen at −20° C. Prestamped assay plates were allowed to come to room temperature on the day of the assay. For the screen, 100 nL of 2 mM was pre-dispensed for a final screening concentration of 10 μM (DMSO(fc)=0.5%). […] Plates were incubated stacked for 90 minutes at room temperature before fluorescence was read on the Envision (Excitation at 485 nm and Emission at 535 nm; Perkin Elmer) or on the PheraSTAR (Excitation at 485 nm and Emission at 535 nm; BMG Labtech).
For follow-up studies, each assay was performed in a final volume of 15 μL in assay buffer containing 20 mM Tris-HCl (pH 8.0, (1M Tris-HCl, pH 8.0 solution; Corning 46-031-CM)), 3 mM BME (2-Mercaptoethanol; Sigma 63689-25ML-F), 0.03% BGG (0.22 μM filtered, Sigma, G7516-25G), and 0.01% Triton X-100 (Sigma, T9284-10L). Nanoliter quantities of either an 8-point or 10-point, 3-fold serial dilution in DMSO was pre-dispensed into assay plates (Perkin Elmer, ProxiPlate-384 F Plus, #) for a final test concentration of either 25 μM to 11 nM or 25 μM to 1.3 nM, respectively. Enzyme USP28, construct USP28 (USP28-5(1-1077)-TEV-6*His; LifeSensors) concentration and incubation times were optimized for the maximal signal-to-background while maintaining initial velocity conditions at a fixed substrate concentration. The final concentration of the enzyme in the assay was […]. Final substrate (Ub-Rh110; Ubiquitin-Rhodamine 110, R&D Systems #U-555) concentration was 25 nM with [Ub-Rh110]<<Km. 5 μL of 2× enzyme was added to assay plates (pre-stamped with compound) preincubated with USP28 for 30 minutes and then 5 μL of 2× Ub-Rh110 was added to assay plates. Plates were incubated stacked for 20 minutes at room temperature before 5 μL of stop solution was added (final concentration of 10 mM citric acid (Sigma, 251275-500G)). Fluorescence was read on the Envision (Excitation at 485 nm and Emission at 535 nm; Perkin Elmer) or on the PheraSTAR (Excitation at 485 nm and Emission at 535 nm; BMG Labtech).
For assay formats Example A-1(a), A-1(b), and A-2, data were reported as percent inhibition compared with control wells based on the following equation: % inh=1−((FLU−AveLow)/(AveHigh−AveLow)) where FLU=measured Fluorescence, AveLow=average Fluorescence of no enzyme control (n=16), and AveHighh=average Fluorescence of DMSO control (n=16). IC50 values were determined by curve fitting of the standard 4 parameter logistic fitting algorithm included in the Activity Base software package: IDBS XE Designer Model 205. Data is fitted using the Levenburg Marquardt algorithm.

[2] = molecular target: T2, USP28 (His-tagged USP28-FL-mammalian) (Homo sapiens, UniProt Q96RU2); assay: Ubiquitin-Rhodamine 110 Assay for USP28 Activity, Example A-1(a); assay type: biochemical; conditions: Ubiquitin-Rhodamine 110 biochemical assay, read-out: USP28 A-1(a) IC50 range
T2 construct: Expression of USP28 (1-1077)-TEV-6*His (pTT5 vector) was carried out in Expi293f cells; made in house; host or cells: Expi293F cells (pTT5 vector)
T2 sequence (Q96RU2 1-1077): T1 sequence (Q96RU2 1-1077)
Method in brief: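 IC50s were fitted with a 4-parameter logistic to percent inhibition relative to no-enzyme and DMSO controls, using Rhodamine 110 fluorescence (485/535 nm) released from 25 nM Ub-Rh110. The enzyme was Expi293F-expressed USP28-FL-His at […], preincubated 30 min with compound (10-point, 25 μM top) in Tris pH 8.0 buffer containing BGG and Triton X-100. Substrate turnover ran 45 min at room temperature and was stopped with 10 mM citric acid.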

[3] = Ubiquitin-Rhodamine 110 Assay for USP25 Activity, Example A-3; assay type: biochemical; conditions: Ubiquitin-Rhodamine 110 biochemical assay, Example A-1(b); read-out: USP28 A-1(b) IC50 range
Method in brief: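 USP25-His6 ([…] final as stated) preincubated 30 min with compound (10-point, 25 μM to 1.3 nM), then Ub-Rh110 at 25 nM (<<Km) added in pH 8.0 Tris buffer with BME, BGG and Triton X-100. Reaction stopped after 45 min at room temperature with 10 mM citric acid; fluorescence read at 485/535 nm.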

[4] = system: human eosinophil EOL-1 (DSMZ no. ACC 386) cells; assay: In Vivo Xenograft Studies, Example A-2; conditions: EOL-1 cells subcutaneous in flank of mice; first test compound 50-120 mg/kg orally or subcutaneously, second test compound 40 or 60 mg/kg orally twice per day; versus vehicle (FIG. 2)
Protocol: Example A-2: In Vivo Xenograft Studies
Mice were injected subcutaneously in the flank with human eosinophil EOL-1 (DSMZ no. ACC 386) cells (NCI). Injections with cells (circles, FIG. 2A) and with vehicle alone (triangles, FIG. 2B) were monitored, and when tumors reached a critical size (for example, about 1000 mm^3), mice were randomized into treatment groups, including vehicle control and reference standard groups. The groups, as shown in FIG. 2B are as follows: Group 1, vehicle administered orally every other day; Group 2, first test compound ((S)-amino-N-(5-fluoro-7-(piperazin-1-yl)chroman-3-yl)-6-methylthieno[2,3-b]pyridine-2-carboxamide) at 120 mg/kg, administered orally every other day; Group 3, first test compound at 80 mg/kg, administered orally every other day; Group 4, first test compound at 80 mg/kg, administered subcutaneously twice per day, every other day thereafter; Group 5, first test compound at 60 mg/kg, administered subcutaneously twice per day for four consecutive days, with no administration for three days. […] The mice were weighed and tumors measured using vernier calipers on indicated days. Tumor volume was calculated according to the formula (length×width^2)/2.

SMILES | USP28 A-1(b) IC50 range [1] | IC50 [2] | IC50 [3] | tumor growth (tumor volume, (length×width^2)/2) [4]
CCn1ccc2cc(C(=O)N[C@@H]3CCc4cc(N5CC6CCC(C5)N6)ccc4C3)nnc21 (single isomer, unassigned) [Example 11-23] | + (“+”L>2 μM) | – | – | –
CCn1ccc2cc(C(=O)N[C@H]3CCc4cc(N5CC6CCC(C5)N6)ccc4C3)nnc21 (single isomer, unassigned) [Example 11-24] | + (“+”L>2 μM) | – | – | –
Cc1ccc2c(N)c(C(=O)N[C@H]3COc4cc(N5C[C@@H]6CNC[C@H]6C5)ccc4C3)sc2n1 [Example 43, 3-amino-N-((R)-7-((3aR,6aR)-hexahydropyrrolo[3,4-c]pyrrol-2(1H)-yi)chroman-3-yl)-6-methylthieno[2,3-b]pyridine-2-carboxamide] | + (“+”L>2 μM) | – | – | –
CCN[C@H]1CN(c2ccc3c(n2)CC[C@H](NC(=O)c2sc4nc(C)ccc4c2N)C3)C[C@@H]1COC [Example 476, 3-amino-N-[(6S)-2-[(3R,4S)-3-(ethylamino)-4-(methoxymethyl)pyrrolidin-1-yl]-5,6,7,8-tetrahydroquinolin-6-yl]-6-methylthieno[2,3-b]pyridine-2-carboxamide] | – | 50 to 200 nM | > 2000 nM | –
CCN[C@@H]1CN(c2ccc3c(n2)CC[C@H](NC(=O)c2sc4nc(C)ccc4c2N)C3)C[C@H]1COC [Example 477, 3-amino-N-[(6S)-2-[(3S,4R)-3-(ethylamino)-4-(methoxymethyl)pyrrolidin-1-yl]-5,6,7,8-tetrahydroquinolin-6-yl]-6-methylthieno[2,3-b]pyridine-2-carboxamide] | – | 50 to 200 nM | > 2000 nM | –
Cc1ccc2c(N)c(C(=O)N[C@H]3CCc4nc(N5CC[C@@H](N)[C@@H]5C(F)F)ccc4C3)sc2n1 [Example 478, 3-amino-N-[(6S)-2-[(2R,3R)-3-amino-2-(difluoromethyl)pyrrolidin-1-yl]-5,6,7,8-tetrahydroquinolin-6-yl]-6-methylthieno[2,3-b]pyridine-2-carboxamide] | – | 50 to 200 nM | > 2000 nM | –
Cc1ccc2c(N)c(C(=O)N[C@H]3CCc4nc(N5CC[C@H](N)[C@H]5C(F)F)ccc4C3)sc2n1 [Example 479, 3-amino-N-[(6S)-2-[(2S,3S)-3-amino-2-(difluoromethyl)pyrrolidin-1-yl]-5,6,7,8-tetrahydroquinolin-6-yl]-6-methylthieno[2,3-b]pyridine-2-carboxamide] | – | 1 to 50 nM | 50 to 200 nM | –
Cc1nc2sc(C(=O)N[C@H]3CCc4nc(N5C[C@@H](CF)[C@H](N)C5)ccc4C3)c(N)c2cc1F [Example 507, 3-amino-N-[(6S)-2-[(3S,4R)-3-amino-4-(fluoromethyl)pyrrolidin-1-yl]-5,6,7,8-tetrahydroquinolin-6-yl]-5-fluoro-6-methylthieno[2,3-b]pyridine-2-carboxamide] | – | 50 to 200 nM | 200 to 2000 nM | –
Cc1ccc2c(N)c(C(=O)N[C@@H]3COc4cc(N5CCNCC5)cc(F)c4C3)sc2n1 [first test compound, (S)-amino-N-(5-fluoro-7-(piperazin-1-yl)chroman-3-yl)-6-methylthieno[2,3-b]pyridine-2-carboxamide] | – | – | – | slowing of tumor growth over time
CO[C@H]1CN(c2ccc3c(n2)CC[C@H](NC(=O)c2sc4nc(C)cnc4c2N)C3)C[C@@H]1N [second test compound, 7-amino-N-[(6S)-2-[(3S,4S)-3-amino-4-methoxypyrrolidin-1-yl]-5,6,7,8-tetrahydroquinolin-6-yl]-3-methylthieno[2,3-b]pyrazine-6-carboxamide] | – | – | – | slowing of tumor growth over time
